Reference: patent US8778959B2, “AZA-bridged ring-fused indoles and indolines” (AbbVie Inc., priority 2009, dated 2014)

System: SK-N-SH human neuroblastoma cells
Test: Serum Deprivation/JC-1 Mitochondrial Membrane Potential (MMP) Assay
Type: cell-based
Conditions: Homo sapiens, SK-N-SH, 18 h; for Emax: percent maximal intensity in JC-1 ratio normalized to peak value for 10 μM dimebolin, read-out: JC-1 max %; for EC50: serum deprivation ~18 hours, JC-1 ratio normalized to peak value for 10 μM dimebolin, single curve fit to mean of n=2-3
Description: SK-N-SH human neuroblastoma cells obtained from American Type Culture Collection (Rockville, Md.) were maintained in the log phase of growth in Minimal Essential Media (MEM), 10% heat inactivated fetal calf serum and 100 units/mL antibiotic-antimycotic (AA). Cells were cultured and maintained in a humidified incubator at 37° C. under 5% CO2 and 95% air. Cells were trypsinized (0.25%) and subcultured every 3 days and used from 15-18 passages. All cell culture supplies were obtained from Invitrogen (Carlsbad, Calif.).
SK-N-SH cells were plated 2-3 days in advance at a concentration of 50,000 cells/well onto collagen coated black-walled 96 well plates (Becton-Dickinson, Bedford, Mass.) in a total volume of 200 μL. On day of experimental treatment, the media containing serum was aspirated from each well and rinsed once with MEM/1% AA without serum. The cells then were incubated overnight in 100 μL of MEM/1% AA (no serum) with and without dimebolin or novel chemical entities overnight for ˜18 hours. The following day, JC-1 dye (5,5′,6,6′-tetrachloro-1,1′,3,3′-tetraethylbenzimidazolcarbocyanide) was diluted 1:10 into MEM media according to the JC-1 Mitochondrial Membrane Potential Assay Kit: (Cayman Chemical Company, Ann Arbor, Mich.) and then 10 μL of the JC-1 dye solution was added to each well. The plates were centrifuged for 5 minutes at 400×g at room temperature followed by 35 minute incubation at 37° C. The plates were washed twice with 200 μL of provided Assay Buffer followed an addition of 100 μL of Assay Buffer to each well. The plates were read with an excitation and emission of 560 nm and 595 nM for red fluorescence and with an excitation and emission of […] and 535 nM for green fluorescence to determine the final JC-1 value taking the red to green fluorescence ratio. This assay is based on change in mitochondrial membrane potential (MMP) using this lipophilic cationic dye, JC-1, by monitoring the changes in the ratio of red to green fluorescence as the MMP depolarizes. This change in MMP reflects the health of the cell with healthy, viable cells have a high JC-1 ratio and high MMP whereas apoptotic, unhealthy cells have a low JC-1 ratio or low MMP.
For the ability of compounds to reverse the stress due to serum deprivation and increase the JC-1 ratio, the percent maximal intensity in JC-1 ratio was normalized to that induced by the peak value for 10 μM dimebolin and plotted against the compound concentration to calculate EC50 values and to control for plate-to-plate variability. Concentration-response data were analyzed using GraphPad Prism (San Diego, Calif.); the EC50 values were derived from a single curve fit to the mean data of n=2-3, in duplicates.
All compounds were dissolved in dimethyl sulfoxide at 10 mM stock solutions and tested at a concentration that the dimethyl sulfoxide levels never exceeded 1%.

| Compound | Emax [%] | EC50 [µM] |
| --- | --- | --- |
| Cc1ccc(C#Cc2cccc3c4c([nH]c23)C[C@H]2CC[C@@H]4N2C)cn1 (stereo in doubt) [Example 17, (−)-(7R*,10S*)-11-methyl-4-[(6-methylpyridin-3-yl)ethynyl]-5,6,7,8,9,10-hexahydro-7,10-epiminocyclohepta[b]indole] | 182 | 3.87 |
| Cc1ccc(-c2cccc3c4c([nH]c23)CC2CNC4C2)cn1 (centres unmarked) [Example 37, 7-(6-methylpyridin-3-yl)-1,2,3,4,5,6-hexahydro-1,4-methanoazepino[4,3-b]indole] | 131 | 7.33 |
| Cc1ccc(C#Cc2cccc3c4c([nH]c23)C[C@@H]2CC[C@H]4N2C)cn1 (stereo in doubt) [Example 16, (+)-(7S*,10R*)-11-methyl-4-[(6-methylpyridin-3-yl)ethynyl]-5,6,7,8,9,10-hexahydro-7,10-epiminocyclohepta[b]indole] | 193 | 5.11 |
| Cc1ccc(/C=C/c2cccc3c4c(n(C)c23)CC2CCC4N2)cn1 (centres unmarked) [Example 24, 5-methyl-4-[(E)-2-(6-methylpyridin-3-yl)vinyl]-5,6,7,8,9,10-hexahydro-7,10-epiminocyclohepta[b]indole] | 217 | 3.85 |
| Cc1ccc(/C=C/c2ccc3[nH]c4c(c3c2)C2CCC(C4)N2C)cn1 (centres unmarked) [Example 4, 11-methyl-2-[(E)-2-(6-methylpyridin-3-yl)vinyl]-5,6,7,8,9,10-hexahydro-7,10-epiminocyclohepta[b]indole] | 239 | 3.62 |
| CN1[C@@H]2CCC[C@H]1c1c([nH]c3c(OCc4ccccc4)cccc13)C2 (stereo in doubt) [Example 7, (−)-(7R*,11S*)-4-(benzyloxy)-12-methyl-6,7,8,9,10,11-hexahydro-5H-7,11-epiminocycloocta[b]indole] | 120 | 5.41 |
| Cc1ccc(/C=C/c2cccc3c4c([nH]c23)C[C@@H]2CC[C@H]4N2C)cn1 (stereo in doubt) [Example 14, (+)-(7S*,10R*)-11-methyl-4-[(E)-2-(6-methylpyridin-3-yl)vinyl]-5,6,7,8,9,10-hexahydro-7,10-epiminocyclohepta[b]indole] | 162 | 4.34 |
| CN1[C@H]2CC[C@@H]1c1c([nH]c3c(OCc4ccccc4)cccc13)C2 (stereo in doubt) [Example 6, (7S*,10R*)-4-(benzyloxy)-11-methyl-5,6,7,8,9,10-hexahydro-7,10-epiminocyclohepta[b]indole] | 55 | 4.59 |
| Cc1ccc(C#Cc2cccc3c4c([nH]c23)CC2CCC4N2C)cn1 (centres unmarked) [Example 3, 11-methyl-4-[(6-methylpyridin-3-yl)ethynyl]-5,6,7,8,9,10-hexahydro-7,10-epiminocyclohepta[b]indole] | 244 | 6.18 |
| COC(=O)N1C2CCC1c1c([nH]c3c(-c4ccc5ncccc5c4)cccc13)C2 (centres unmarked) [Example 22, methyl 4-quinolin-6-yl-5,6,7,8,9,10-hexahydro-7,10-epiminocyclohepta[b]indole-11-carboxylate] | 204 | 6.44 |
| COC(=O)N1C2CCC1c1c([nH]c3c(-c4cnc5ccccc5c4)cccc13)C2 (centres unmarked) [Example 36, methyl 4-(quinolin-3-yl)-5,6,7,8,9,10-hexahydro-7,10-epiminocyclohepta[b]indole-11-carboxylate] | 140 | 1.13 |
| Cc1ccc(/C=C/c2cccc3c4c([nH]c23)CC2CCC4N2)cn1 (centres unmarked) [Example 13, 4-[(E)-2-(6-methylpyridin-3-yl)vinyl]-5,6,7,8,9,10-hexahydro-7,10-epiminocyclohepta[b]indole] | 164 | 4.62 |
| CC(=O)N1C2CCC1c1c([nH]c3c(-c4ccc(Cl)nc4)cccc13)C2 (centres unmarked) [Example 29, 1-[4-(6-chloropyridin-3-yl)-5,6,7,8,9,10-hexahydro-7,10-epiminocyclohepta[b]indol-11-yl]ethanone] | 114 | 5.31 |
